{"source": "patent US20150246071A1", "about": "“TREATMENT COMPOSITIONS” (REOXCYN DISCOVERIES GROUP, INC., priority 2012, published 2015)", "key": {"[1]": {"tested_on": "phosphorylated proteins (extra-nuclear fraction)", "assay": "Western Blot of protein phosphorylation in extra-nuclear fraction of HMVEC-L", "type": "cell-based, human", "details": "composition 1%, H2O2 positive control", "protocol": "(§1) 8. A Western Blot analysis was done on extra-nuclear and intra-nuclear fractions, separated by differential centrifugation, of serum starved HMVEC-L cell cultures exposed to <1% of a composition of the invention compared with a positive hydrogen peroxide control to determine phosphorylation events (oxidant action) in the extra-nuclear fraction and NRF2 (antioxidant transcription) in the intra-nuclear fraction at 0, 30, 60, 90 and 120 min intervals.\n(§2) Experimental Methods for Western Blot Validation of NRF2 Nuclear Accumulation: HMVEC-L were treated with 1% of a composition of the invention, nuclear extracts were separated through centrifugal differentiation from the extra-nuclear cytosol at 30, 60 and 120 min and subjected to Western Blot analysis for NRF2. In the Western blot experiment the extra-nuclear fraction was probed for phosphorylated proteins using a combination of anti-phospho serine, threonine and tyrosine antibodies. Virtually all cellular processes are regulated by posttranslational modifications and protein phosphorylation is a prevalent mechanism. […]"}, "[2]": {"tested_on": "NRF2", "assay": "Western Blot validation of NRF2 nuclear accumulation in HMVEC-L", "type": "cell-based, human", "details": "ASEA 1% at 30, 60, 120 min, H2O2 30 min", "protocol": "as §1, §2"}}}
{"smiles": "OO", "note": "[H2O2, Hydrogen peroxide]", "values": [{"measurement": "phosphorylation of extra-nuclear protein (Western Blot)", "setting": "[1]", "result": "marked increase"}, {"measurement": "NRF2 levels in nuclear extracts (Western Blot)", "setting": "[2]", "result": "did not increase"}]}
